Measured values taken from US20260101901A1, “DELAYING BLOOM IN HORTICULTURAL CROPS USING JASMONIC ACID BIOSYNTHESIS INHIBITORS” (VIRGINIA TECH INTELLECTUAL PROPERTIES INC., priority 2022, published 2026).

Experiments:
‘John Boy’ peach trees [1] = assay: Exp. 1 (2021) field trial: DIECA concentrations sprayed at 1000 GDH, bloom time, fruit set and size; type: in vivo; parameters: Delay of the flowering date (F50) vs control: dose or concentration left out as unconfirmed
‘John Boy’ peach trees [2] = assay: Exp. 4 (2022) field trial: late DIECA application at 2000 GDH, bloom time and fruit set; type: in vivo; details: DIECA 50 mM at 2000 GDH
Experimental: (§1) The field trials were taken place at the Alson H. Smith Jr. Agricultural Research and Extension Center (AREC), Winchester, VA, the United States (39°06′36.0′N 78°16′48.0′W). Experiments were conducted over two growing seasons (2021 and 2022) on 3-year-old ‘John Boy’ and 10-year-old ‘Redhaven’ peach trees; both are grafted on ‘Lovell’ rootstock.
(§2) Chilling and heat accumulation were computed from meteorological data obtained from each orchard. Data loggers (EasyLog, Lascar) were kept in enclosed wooden shelters 1.2 m above the ground and recorded temperatures at 10 min intervals. Chilling requirements were calculated using the chilling hours (CH) model (Weinberger, 1950), in which each hourly temperatures within the range of 0-7.2° C. were registered as 1 CH, and temperatures outside of this range were not considered. Starting at 500 CH, three one-year-old branches, each with at least 10 floral buds, were collected weekly from each treatment. […]
(§3) After completion of CR, heat requirements were recorded according to the growing degree hours (GDH) model proposed by Richardson et al. (1975). […] Heat requirements (HR) were calculated as the GDH accumulated from the date of endodormancy release (under growth chambers conditions) to the date 50% of buds were in full bloom, F50 (under field conditions). […]

[3] = test system: ginseng, wheat and tea plant (Camellia sinensis); details: DIECA application; cited from earlier work
‘John Boy’ peach trees [4] = assay: Exp. 1 (2021) field trial: DIECA concentrations sprayed at 1000 GDH, bloom time, fruit set and size; type: in vivo; details: for Heat requirements / Flowering (F50) date / Days from endodormancy release to flowering (F50): sprayed at 1000 GDH, ‘John Boy’ 2021; for Flowering (F50) date: control 06 April; for Days from endodormancy release to flowering (F50): control 69 b
Experimental: as §1
(§4) Chilling and heat accumulation were computed from meteorological data obtained from each orchard. Data loggers (EasyLog, Lascar) were kept in enclosed wooden shelters 1.2 m above the ground and recorded temperatures at 10 min intervals. Chilling requirements were calculated using the chilling hours (CH) model (Weinberger, 1950), in which each hourly temperatures within the range of 0-7.2° C. were registered as 1 CH, and temperatures outside of this range were not considered. Starting at 500 CH, three one-year-old branches, each with at least 10 floral buds, were collected weekly from each treatment. After removal of the terminal buds, the branches were placed in a beaker containing a floral solution prepared with Floralife (Smithers-Oasis Co., Walterboro, SC, USA). The floral solution was replaced weekly and around 1 cm was trimmed from the basal end of each branch to eliminate potential infections. The branches were kept in a growth chamber with conditions favoring bud growth (photoperiod with fluorescent lamps at 135 μmol·m^−2·s^−1 of 16 h at 25° C., a dark period of 8 h at 20° C., and a constant relative humidity of 65%). The endodormancy release and CRs were considered fulfilled when 50% of the buds have reached the calyx green stage after 14 days in the growth chamber.
(§5) After completion of CR, heat requirements were recorded according to the growing degree hours (GDH) model proposed by Richardson et al. (1975). In this model, hourly temperatures less than 4.5° C. registered no GDH; temperatures in the interval of 4.5-25° C. were adjusted by subtracting 4.5° C., and temperatures greater than 25° C. were registered as 20.5 (25-4.5) GDH. Heat requirements (HR) were calculated as the GDH accumulated from the date of endodormancy release (under growth chambers conditions) to the date 50% of buds were in full bloom, F50 (under field conditions).
This trial was conducted on ‘John Boy’ peach trees. Three different concentrations (0.5 mM, 10 mM, and 25 mM) of DIECA (Sigma-Aldrich Co., St Louis, MO, USA) were sprayed on three groups of trees, each group is composed of three adjacent trees. Treatments and control (untreated) trees were arranged in a completely randomized design (CRD). At least one buffer tree was assigned between each treatment to avoid spray drift. Trees were sprayed on 3 Mar. 2021 at 1000 GDH at a spray volume of 0.3 L per tree, using a hand sprayer. Regulaid (250 ppm), a non-ionic surfactant from Kalo Inc. (Overland Park, KS, United States) was mixed with all treatments and experiments at the rate of 250 ppm.
(§6) At the pink-bud stage, three-four branches from each treated and untreated (control) tree were randomly selected across the tree and flagged using colored ribbons. The number of buds on selected branches (at least 80 bud/tree) was used as the initial bud count. The progression of flower opening was recorded by periodically counting the number of open blossoms in each experiment. The number of open flowers (anthers visible) was counted every 1-3 days until all buds reached the full bloom stage (50% of flowers are fully open). The blooming rate at each time point was calculated as the ratio of open blossoms to the initial bud number per tree, and the flowering date (F50) for each treatment was determined when the blooming rate reached 50%. The numbers of fruit on the marked branches were counted 2 and 4 and 8 weeks after full bloom. Percent fruit set was calculated as the number of fruits divided by the number of flowers times 100.

‘Redhaven’ peach trees [5] = assay: Exp. 3 (2022) field trial: DIECA concentrations sprayed at 500 GDH, bloom time and fruit set; type: in vivo; details: for Heat requirements / Flowering (F50) date / Days from endodormancy release to flowering (F50): sprayed at 500 GDH, ‘Redhaven’ 2022; for Flowering (F50) date: control 01 April; for Days from endodormancy release to flowering (F50): control 72 c
Experimental: as §1, §4, §5
In this trial, we used peach ‘Redhaven’ trees to examine the effects of three different concentrations (12.5, 25 and 50 mM) of DIECA on blooming time. Three adjacent trees were assigned for each treatment. All treated and untreated (control) trees were distributed in the orchard according to the CRD experimental design. DIECA treatments were applied at 500 GDH at a spray volume of 1.8 L per tree, using a high-pressure tree sprayer.
as §6

‘Redhaven’ peach trees [6] = assay: Exp. 2 (2021) field trial: DIECA application timing, bloom time; type: in vivo; details: DIECA 10 mM applied at 1000 GDH
Experimental: as §1, §2, §3

‘Redhaven’ peach = type: in vivo; details: antipyrine 50 mM, propyl gallate 15 mM, four weekly applications from swollen bud stage
Experimental: (§7) In this study, we investigated the influence of propyl gallate and Antipyrine on the flowering time of ‘Redhaven’ and ‘Sunhigh’ cultivars. Three adjacent trees were randomly chosen, each as a replicate, and subjected to treatments: propyl gallate (15 mM), antipyrine (50 mM), and an untreated control. Four applications of each treatment were administered weekly, commencing at the swollen bud stage, which are concurrent at 2059, 2167, 2356, and 3128 DGH, respectively, employing a hand sprayer with the volume of 2.5 L per tree. Regulaid, a non-ionic surfactant from Kalo Inc. (Overland Park, KS, United States) was mixed with all treatments and experiments at the rate of 250 ppm.
as §6, with “The number of buds on selected branches (at least 80 bud/tree) was used as the initial bud count.” left out, “The numbers of fruit on the marked branches were counted 2 and 4 and 8 weeks after full bloom. Percent fruit set was calculated as the number of fruits divided by the number of flowers times 100.” left out

‘Sunhigh’ peach = assay: Exp. 5 (2023) field trial: propyl gallate and antipyrine, flowering time; type: in vivo; details: antipyrine 50 mM, propyl gallate 15 mM, four weekly applications from swollen bud stage
Experimental: as §7
as §6, with “The number of buds on selected branches (at least 80 bud/tree) was used as the initial bud count.” left out, “The numbers of fruit on the marked branches were counted 2 and 4 and 8 weeks after full bloom. Percent fruit set was calculated as the number of fruits divided by the number of flowers times 100.” left out

[7] = test system: peach and other stone fruits; details: cited from earlier work

## CCN(CC)C(=S)[S-].[Na+] [DIECA, sodium diethyldithiocarbamate]
‘John Boy’ peach trees [1]; DIECA, 1000 GDH, ‘John Boy’
  Delay of the flowering date (F50) vs control: three
‘John Boy’ peach trees [2]
  Flowering time vs control: No significant differences
[3]
  JA levels: substantially reduce JA levels
‘John Boy’ peach trees [4]; DIECA 0.5 mM
  Heat requirements: 5373 GDH
  Flowering (F50) date: 06 April
  Days from endodormancy release to flowering (F50): 69 b days
‘John Boy’ peach trees [4]; DIECA 10 mM
  Heat requirements: 5539 GDH
  Flowering (F50) date: 07 April
  Days from endodormancy release to flowering (F50): 70 b days
‘John Boy’ peach trees [4]; DIECA 25 mM (highest concentration), 1000 GDH, ‘John Boy’
  Delay in the blooming: significant delay in the blooming
‘John Boy’ peach trees [4]; DIECA 25 mM
  Heat requirements: 6048 GDH
  Flowering (F50) date: 08 April
  Days from endodormancy release to flowering (F50): 72 a days
‘Redhaven’ peach trees [5]; DIECA 12.5 mM
  Heat requirements: 6090 GDH
  Flowering (F50) date: 04 April
  Days from endodormancy release to flowering (F50): 75 bc days
‘Redhaven’ peach trees [5]; DIECA 25 mM at 500 GDH
  Delay in bloom time compared to the untreated control: 3 days
‘Redhaven’ peach trees [5]; DIECA 25 mM
  Heat requirements: 6090 GDH
  Flowering (F50) date: 04 April
  Days from endodormancy release to flowering (F50): 75 b days
‘Redhaven’ peach trees [5]; DIECA 50 mM at 500 GDH
  Delay in bloom time compared to the untreated control: 6 days
‘Redhaven’ peach trees [5]; DIECA 50 mM
  Heat requirements: 6478 GDH
  Flowering (F50) date: 07 April
  Days from endodormancy release to flowering (F50): 78 a days
‘Redhaven’ peach trees [5]; all DIECA applications (12.5, 25, 50 mM) at 500 GDH
  Bloom delay: remarkable bloom delay
‘Redhaven’ peach trees [5]; high DIECA concentrations (>25 mM) at early ecodormancy (~500 GDH)
  Bloom delay in peach: 3 to 6 days
‘Redhaven’ peach trees [6]
  Bloom progression compared to the control: slightly delayed bloom progression
‘Redhaven’ peach trees [6]; 2000 GDH or 1000+2000 GDH
  Bloom-delaying effect: None of the DIECA application timings showed a significant bloom-delaying effect

## CCCOC(=O)c1cc(O)c(O)c(O)c1 [propyl gallate, n-propyl gallate]
‘Redhaven’ peach
  Bloom delay compared to the control: no significant impact
‘Sunhigh’ peach
  Bloom delay compared to the control: single

## CCN(CC)C(=S)[S][Na] [DIECA, sodium diethyldithiocarbamate]
‘John Boy’ peach trees [1]; DIECA 0.5, 10, 25 mM, 3 and 6 WAFB
  Fruit set (%) vs control: No significant differences
‘John Boy’ peach trees [2]; 2 and 4 WAFB
  Fruit set (%) vs control: no significant differences
‘John Boy’ peach trees [4]; DIECA 0.5, 10, 25 mM, 6 WAFB
  Fruit size vs control: No significant differences
‘Redhaven’ peach trees [5]; DIECA 12.5, 25, 50 mM at 500 GDH, 2 and 4 WAFB
  Fruit set (%) vs control: did not show significant differences

## O=P(O)(O)CCCl [ET, 2-chloroethylphosphonic acid]
[7]; high concentration application
  Detrimental effects: gummosis, abortion of floral buds and dieback of the branches
[7]; high concentration, applied in the fall
  Bloom delay: more than two weeks

## Cc1cc(=O)n(-c2ccccc2)n1C [Antipyrine, antipyrine]
‘Redhaven’ peach
  Bloom delay compared to the control: two
‘Sunhigh’ peach
  Bloom delay compared to the control: four
